Assay results taken from patent publication US12465585B2, “Compositions for the management of seizure induced neurotoxicity” (SAMI-SABINSA GROUP LIMITED, priority 2018, dated 2025).

What was measured:
Format in all cases: in vivo
cortex of the brain = assay: Anti-oxidant parameters in brain cortex, kainic acid induced seizure rat model; conditions: KA seizure rat model, KA vs control
Protocol: (§1) Two-month-old male Sprague-Dawley rats were purchased from commercial vendor and housed at 25°±2° C., with the humidity maintained at 55%, wood chip bedding, on a 12:12 hour dark/light cycle, with free access to food and water. All animal procedures were carried out in accordance with NIH and Auburn University Animal Care and Use Committee guidelines. The rats were divided into four groups (1. Control, 2. Kainic acid (10 mg/kg), 3. LD (Low Dose)-composition containing OBC 250 mg/kg+Kainic acid, and 4. High Dose (HD)-composition containing OBC 500 mg/kg+Kainic acid). Composition containing OBC was mixed with powdered feed and administered orally for 2 weeks prior to kainic-acid administration. […] Neuroscience. 1982; 7(10):2525-36; Jinde et al., Lack of kainic acid-induced gamma oscillations predicts subsequent CA1 excitotoxic cell death. Eur J Neurosci. 2009; 30(6):1036-55; Medvedev et al., Kainic acid induces distinct types of epileptiform discharge with differential involvement of hippocampus and neocortex. Brain Res Bull. 2000; 52(2):89-98). Typically, Racine scores include the following stages:
For the complete management of epilepsy, it is imperative to reduce the incidence of seizures and also to effectively manage and correct the damage to the neurons which is induced by recurrent seizure activity. Drugs which reduced the incidence of seizures may not effectively manage and correct the clinical conditions resulting from seizures. Failure to correct and manage such effects results in neurodegeneration. The ability of a composition comprising oroxylin A, baicalein and chrysin (OBC) [250 mg/kg—low dose (LD) and 500 mg/kg—high dose (HD)] to management of neurotoxicity associated by epilepsy was tested in kainic acid induced seizure rat model. The biochemical parameters like ROS, hydrogen peroxide, protein carbonyl levels, nitrite levels, glutathione content, mitochondrial activity, and caspase activity were estimated in the cortex of the rat models.

caspase 1 = assay: Caspase 1 activity in brain cortex, kainic acid induced seizure rat model; conditions: KA seizure rat model, KA vs control, OBC 250 and 500 mg/kg
Protocol: as §1
(§2) For the complete management of epilepsy, it is imperative to reduce the incidence of seizures and also to effectively manage and correct the damage to the neurons which is induced by recurrent seizure activity. […]

caspase 3 = assay: Caspase 3 activity in brain cortex, kainic acid induced seizure rat model; conditions: KA seizure rat model, KA vs control, OBC 250 and 500 mg/kg
Protocol: as §1, §2

[1] = OBC 250 and 500 mg/kg oral 2 weeks

Q: For C=C(C)[C@H]1CN[C@H](C(=O)O)[C@H]1CC(=O)O [Kainic acid], which “Glutathione levels (FIG. 7)” value (cortex of the brain; OBC 250 and 500 mg/kg) is on record?
A: The value was “decreased”.

Q: What about the “Hydrogen peroxide levels (FIG. 4)” value (cortex of the brain; [1]) of the same molecule?
A: Its value is “significantly increased”.

Q: What about the “Lipid peroxidation (FIG. 5)” value (cortex of the brain; [1]) of the same molecule?
A: Its value is “significantly increased”.

Q: What about the “Nitrite content (FIG. 3)” value (cortex of the brain; [1]) of the same molecule?
A: Its value is “significantly increased”.

Q: And the “Protein carbonyl content (FIG. 6)” value (cortex of the brain; [1])?
A: The value was “significantly increased”.

Q: What about the “ROS generation (FIG. 2)” value (cortex of the brain; [1]) of the same molecule?
A: Its value is “significantly increased”.

Q: What about the “Activity of caspase 1 (FIG. 9)” value (caspase 1) of the same molecule?
A: Its value is “significantly increased”.

Q: What about the “Activity of caspase 3 (FIG. 10)” value (caspase 3) of the same molecule?
A: Its value is “significantly increased”.
